Experimental findings from patent US7816522B2, “Triazolone derivatives” (Eisai Co., Ltd., priority 2006, dated 2010) are described below.

Molecules are shown by their SMILES. Where a name gives a salt, the structure may show the parent alone.

A word on the IC50: it is the concentration that gives 50% inhibition. A low value points to greater potency.

For the assay, the target named is T1, human clotting factor VIIa (Homo sapiens, UniProt P08709).
T1 construct: a human clotting factor VIIa (hereinafter, “Factor VIIa”) purified sample; purchased Enzyme Research Laboratories HFVIIa
T1 sequence (P08709 213-466 limits assumed): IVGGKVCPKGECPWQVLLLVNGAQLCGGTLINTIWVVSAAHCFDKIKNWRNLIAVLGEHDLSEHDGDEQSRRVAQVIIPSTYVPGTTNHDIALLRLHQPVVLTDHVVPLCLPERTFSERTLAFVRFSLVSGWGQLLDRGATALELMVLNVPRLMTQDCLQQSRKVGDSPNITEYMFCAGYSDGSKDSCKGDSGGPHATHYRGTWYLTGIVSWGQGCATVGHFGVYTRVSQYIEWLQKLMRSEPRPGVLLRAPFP
T1 sequence (P08709 61-212 limits assumed): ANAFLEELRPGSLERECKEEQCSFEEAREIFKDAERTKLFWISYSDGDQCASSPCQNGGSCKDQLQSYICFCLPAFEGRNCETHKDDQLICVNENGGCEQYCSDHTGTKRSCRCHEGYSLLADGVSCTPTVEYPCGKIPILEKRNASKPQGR
T1 sequence (P13726 33-295 partner): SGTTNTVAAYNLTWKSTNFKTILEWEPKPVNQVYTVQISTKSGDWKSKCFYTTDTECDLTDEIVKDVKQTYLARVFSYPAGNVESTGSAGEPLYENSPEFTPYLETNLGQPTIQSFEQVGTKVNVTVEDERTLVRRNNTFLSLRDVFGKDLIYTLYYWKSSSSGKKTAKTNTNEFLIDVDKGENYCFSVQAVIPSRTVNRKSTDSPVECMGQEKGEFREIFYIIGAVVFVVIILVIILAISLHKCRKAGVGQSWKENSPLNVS
Put plainly: Inhibitory activity against clotting factor VIIa (chromogenic substrate Spectrozyme FVIIa, TF/Factor VIIa enzyme solution). The class given is biochemical. As to conditions: human Factor VIIa 5 nmol/L with human TF 10 nmol/L, room temperature 40 minutes, 405 nm. On the procedure: [Inhibitory Activity Against Clotting Factor VIIa]
Dimethylsulfoxide (DMSO) solutions were prepared with compounds of the invention at concentration of 10 mmol/L (10 mmol/L compound solutions).
One packet of tris-hydroxymethylaminomethane-preset (hereinafter referred to as “Tris preset”) (Product of Sigma Corp., Catalog No. T8293), 8.8 g of sodium chloride (NaCl) and 1 g of bovine serum albumin (hereinafter abbreviated as “BSA”) were dissolved in 1 L of water to prepare a Tris-BSA buffer (100 mmol/L Tris, 0.15 mol/L NaCl, 0.1% BSA, pH 7.4).
This Tris-BSA buffer (180 μL) was added to the aforementioned 10 mmol/L compound solution (20 μL). A 10-fold dilution series was prepared for this mixture using the aforementioned Tris-BSA buffer, and solutions with the compound at concentrations of 1.0 mmol/L, 100, 10, 1, 0.1, 0.01 and 0.001 μmol/L were prepared (1.0 mmol-0.001 μmol/L compound solutions). As a control, a solution was prepared by 10-fold dilution of DMSO with the Tris-BSA buffer (hereinafter referred to as “control 10% solution”).
After dissolving one packet of Tris preset, NaCl (8.8 g) and BSA (1 g) in water (about 900 mL), there were added 1 mol/L aqueous calcium chloride (CaCl2) (15 mL) and 1 mg/mL aqueous cephalin (30 mL), and the total volume was brought to 1 L by adding water. To this solution there was added a human tissue factor (hereinafter, “TF”) sample (product of Calbiochem, Catalog No. 612151) (450 μg) to a TF sample concentration of 10 nmol/L, and then a human clotting factor VIIa (hereinafter, “Factor VIIa”) purified sample (product of Enzyme Research Laboratories, Catalog No. HFVIIa) (250 μg) was added to a Factor VIIa purified sample concentration of 5 nmol/L, to prepare an enzyme solution (100 mmol/L Tris-HCl, 0.15 mol/L NaCl, 15 mmol/L CaCl2, 30 μg/mL cephalin, 1 mg/mL BSA, 10 nmol/L TF, 5 nmol/L Factor VIIa).
To 110 μL of this enzyme solution there was added 15 μL of each of the 1.0 mmol-0.001 μmol/L compound solutions, and then 25 μL of a 1.0 mmol/L synthetic chromogenic substrate solution (Spectrozyme FVIIa, product of American Diagnostica, Catalog No. 217L) was added and the mixture was allowed to stand at room temperature for 40 minutes. Next, the amount of 4-nitroanilide released into the solution was quantitated by spectrophotometry (405 nm).
A control measurement was conducted in the same manner, using the control 10% solution instead of the compound solution.
This measurement yielded the enzyme reaction inhibition in the presence of 100 μmol/L to 0.1 nmol/L of each compound of the invention.
The enzyme reaction inhibition at each compound concentration was subjected to non-linear regression analysis, and the IC50 value for inhibitory activity of each compound against clotting factor VIIa was calculated.
Regarding `COc1cc(C(Nc2ccc(C(=N)N)c(F)c2)c2nn(-c3ccccc3C(=O)O)c(=O)[nH]2)cc(C)n1` (racemic) [Example 173, 2-{3-[(R) and (S)-(4-carbamimidoyl-3-fluorophenylamino)-(2-methoxy-6-methylpyridin-4-yl)methyl]-5-oxo-4,5-dihydro-[1,2,4]triazol-1-yl}benzoic acid], the concentration for half-maximal inhibition (IC50) worked out at 14.1 nM.
To `CCc1cc(C(Nc2ccc(C(=N)N)cc2)c2nn(-c3ncccn3)c(=O)[nH]2)cc2c1OCOC2` (racemic) [Example 27, (R) and (S)-4-{[(8-ethyl-4H-benzo[1,3]dioxin-6-yl)-(5-oxo-1-pyrimidin-2-yl-4,5-dihydro-1H-[1,2,4]triazol-3-yl)methyl]amino}benzamidine acetate] belongs 3.1 nM; to `COCc1cc(OC)cc(C(Nc2ccc(C(=N)N)cc2)c2nn(-c3ncccn3)c(=O)[nH]2)c1` (racemic) [Example 10, (R) and (S)-4-{[(3-methoxy-5-methoxymethylphenyl)-(5-oxo-1-pyrimidin-2-yl-4,5-dihydro-1H-[1,2,4]triazol-3-yl)methyl]amino}benzamidine acetate], 21.1 nM; to `COc1cc(COCCO)c(F)c(C(Nc2ccc(C(=N)N)cc2)c2nn(-c3ncccn3)c(=O)[nH]2)c1` (single isomer, unassigned) [Example 216, 4-{[[2-Fluoro-3-(2-hydroxyethoxymethyl)-5-methoxyphenyl]-(5-oxo-1-pyrimidin-2-yl-4,5-dihydro-1H-[1,2,4]triazol-3-yl)methyl]amino}benzamidine], 13.4 nM.
`COc1cc(CF)cc(C(Nc2ccc(C(=N)N)cc2)c2nn(-c3ncccn3)c(=O)[nH]2)c1` (stereo not drawn) [Example 11, 4-{[(3-fluoromethyl-5-methoxyphenyl)-(5-oxo-1-pyrimidin-2-yl-4,5-dihydro-1H-[1,2,4]triazol-3-yl)methyl]amino}benzamidine acetate] had an IC50 of 29.7 nM.
As to `COc1cc(C(Nc2ccc(C(=N)N)cc2)c2nn(-c3ncccn3)c(=O)[nH]2)c(F)c2c1OCOC2` (racemic) [Example 32, (R) and (S)-4-{[(5-fluoro-8-methoxy-4H-benzo[1,3]dioxin-6-yl)-(5-oxo-1-pyrimidin-2-yl-4,5-dihydro-1H-[1,2,4]triazol-3-yl)methyl]amino}benzamidine acetate], the half-maximal inhibitory concentration (IC50) was 11.6 nM.
The same measure for `COc1cc(C(Nc2ccc(C(=N)N)cc2)c2nn(-c3ccsc3C(=O)O)c(=O)[nH]2)c(F)c2c1OCCO2` (racemic) [Example 168, (R) and (S)-3-{3-[(4-carbamimidoylphenylamino)-(5-fluoro-8-methoxy-2,3-dihydrobenzo[1,4]dioxin-6-yl)methyl]-5-oxo-4,5-dihydro-[1,2,4]triazol-1-yl}thiophene-2-carboxylic acid]: 2.8 nM; for `COc1cc(C(Nc2ccc(C(=N)N)cc2)c2nn(-c3ncccn3)c(=O)[nH]2)c(F)c2c1OCC2` (racemic) [Example 40, (R) and (S)-4-{[(4-fluoro-7-methoxy-2,3-dihydrobenzofuran-5-yl)-(5-oxo-1-pyrimidin-2-yl-4,5-dihydro-1H-[1,2,4]triazol-3-yl)methyl]amino}benzamidine acetate]: 9 nM; for `COc1cc(C(Nc2ccc(C(=N)N)cc2)c2nn(-c3ncccc3N)c(=O)[nH]2)cc2c1OCCCO2` (racemic) [Example 34, (R) and (S)-4-({[1-(3-aminopyridin-2-yl)-5-oxo-4,5-dihydro-1H-[1,2,4]triazol-3-yl]-(9-methoxy-3,4-dihydro-2H-benzo[b][1,4]dioxepin-7-yl)methyl}amino)benzamidine acetate]: 3 nM.
On to `COc1cc(COCCF)cc(C(Nc2ccc(C(=N)N)cc2)c2nn(-c3ncccn3)c(=O)[nH]2)c1` (racemic) [Example 72, (R) and (S)-4-({[3-(2-fluoroethoxymethyl)-5-methoxyphenyl]-(5-oxo-1-pyrimidin-2-yl-4,5-dihydro-1H-[1,2,4]triazol-3-yl)methyl}amino)benzamidine acetate], for which half-maximal inhibition (IC50) required 10 nM.
The same measure for `COC(=O)c1sccc1-n1nc(C(Nc2ccc(C(=N)N)cc2)c2cc3c(c(OC)c2)OCOC3)[nH]c1=O` (racemic) [Example 152, (R) and (S)-3-{3-[(4-carbamimidoylphenylamino)-(8-methoxy-4H-benzo[1,3]dioxin-6-yl)methyl]-5-oxo-4,5-dihydro[1,2,4]triazol-1-yl}thiophene-2-carboxylic acid methyl ester acetate]: 1.2 nM; for `COc1cc(OCCO)c(F)c(C(Nc2ccc(C(=N)N)cc2)c2nn(-c3ccsc3C(=O)O)c(=O)[nH]2)c1` (racemic) [Example 228, (R) and (S)-3-(3-{(4-Carbamimidoylphenylamino)-[2-fluoro-3-(2-hydroxyethoxy)-5-methoxyphenyl]methyl}-5-oxo-4,5-dihydro[1,2,4]triazol-1-yl)thiophene-2-carboxylic acid]: 2.6 nM; for `COc1cc(C(Nc2ccc(C(=N)N)cc2)c2nn(-c3nc[nH]c3C(=O)O)c(=O)[nH]2)c(F)c2c1OCCO2` (single isomer, unassigned) [Example 191, 5-{3-[(R) or (S)-(4-Carbamimidoylphenylamino)-(5-fluoro-8-methoxy-2,3-dihydrobenzo[1,4]dioxin-6-yl)methyl]-5-oxo-4,5-dihydro-[1,2,4]triazol-1-yl}-3H-imidazole-4-carboxylic acid trifluoroacetate]: 9.3 nM.
The same measure for `COc1cc(C(Nc2ccc(C(=N)N)cc2)c2nn(-c3ncccn3)c(=O)[nH]2)cnc1OC` (racemic) [Example 234, 4-{[(5,6-Dimethoxypyridin-3-yl)-(5-oxo-1-pyrimidin-2-yl-4,5-dihydro-1H-[1,2,4]triazol-3-yl)methyl]amino}benzamidine]: 11.1 nM.
The same measure for `COc1cc(OC)cc(C(Nc2ccc(C(=N)N)cc2)c2nn(-c3ncsc3C(=O)O)c(=O)[nH]2)c1` (racemic) [Example 232, (R) and (S)-4-{3-[(4-Carbamimidoylphenylamino)-(3,5-dimethoxyphenyl)methyl]-5-oxo-4,5-dihydro-[1,2,4]triazol-1-yl}thiazole-5-carboxylic acid]: 23.7 nM; for `COc1cc(OCCO)c(F)c(C(Nc2ccc(C(=N)N)cc2)c2nn(-c3ncsc3C(=O)O)c(=O)[nH]2)c1` (stereo not drawn) [Example 182, 4-(3-{(4-carbamimidoylphenylamino)-[2-fluoro-3-(2-hydroxyethoxy)-5-methoxyphenyl]methyl}-5-oxo-4,5-dihydro[1,2,4]triazol-1-yl)thiazole-5-carboxylic acid trifluoroacetate]: 41.7 nM; for `COc1cc(C(Nc2ccc(C(=N)N)cc2)c2nn(-c3ncccn3)c(=O)[nH]2)c(F)c2c1OCCO2` (racemic) [Example 41, (R) and (S)-4-{[(5-fluoro-8-methoxy-2,3-dihydrobenzo[1,4]dioxin-6-yl)-(5-oxo-1-pyrimidin-2-yl-4,5-dihydro-1H-[1,2,4]triazol-3-yl)methyl]amino}benzamidine acetate]: 6.4 nM.
Compound `COc1cc(F)c(C(Nc2ccc(C(=N)N)cc2)c2nn(-c3ncccc3F)c(=O)[nH]2)cc1OC` (racemic) [Example 184, (R) and (S)-4-({(2-fluoro-4,5-dimethoxyphenyl)-[1-(3-fluoropyridin-2-yl)-5-oxo-4,5-dihydro-1H-[1,2,4]triazol-3-yl]methyl}amino)benzamidine acetate] showed an IC50 of 6.7 nM.
